These results are taken from ChEMBL document CHEMBL1154649, “Anti-HBV agents. Part 3: preliminary structure-activity relationships of tetra-acylalisol A derivatives as potent hepatitis B virus inhibitors” (Bioorg Med Chem Lett, 2009).

Series [1] is described as follows: Cytotoxicity against human HepG2(2.2.15) cells. Format: cell-based.
Series [2] relates to Hepatitis B virus. Put plainly: Antiviral activity against HBV assessed as inhibition of viral surface antigen secretion. The format is functional, organism-based.
Series [3] is described as follows: Selectivity index, ratio of CC50 for human HepG2(2.2.15) cells to IC50 for HBV surface antigen secretion. The format is functional.
The subject of series [4] is Hepatitis B virus. Put plainly: Antiviral activity against HBV assessed as inhibition of viral early antigen secretion. Format: functional, organism-based.
A short description of series [5]: Selectivity index, ratio of CC50 for human HepG2(2.2.15) cells to IC50 for HBV early antigen secretion. The format is functional.
Series [6] can be described thus: Initial plasma concentration n Sprague-Dawley rat at 2 mg/kg, iv. Format: ADME, organism-based. Also noted: dose 2 mg/kg, route intravenous.
A short description of series [7]: Cmax in Sprague-Dawley rat at 10 mg/kg, ig. The format is ADME, organism-based. Details: dose 10 mg/kg, route intragastric. The settings on record: in vivo, po.
The nature of series [8]: Tmax in Sprague-Dawley rat at 10 mg/kg, ig. The format is ADME, organism-based. Details: dose 10 mg/kg, route intragastric. Particulars: in vivo, po.
Series [9] can be described thus: Half life in Sprague-Dawley rat at 2 mg/kg, iv. Particulars: in vivo. Details: dose 2 mg/kg, route intravenous. The format is ADME, organism-based.
For series [10], the system named is Rattus norvegicus. Put plainly: AUC in Sprague-Dawley rat at 10 mg/kg, ig. Format: ADME, organism-based, Plasma. Details: dose 10 mg/kg, route intragastric. Particulars: in vivo, po.
Series [11] relates to Rattus norvegicus. Briefly: AUC in Sprague-Dawley rat at 2 mg/kg, iv. Format: ADME, organism-based, Plasma. Details: dose 2 mg/kg, route intravenous. Particulars: in vivo.
The subject of series [12] is Rattus norvegicus. Briefly: Clearance in Sprague-Dawley rat at 2 mg/kg, iv. Format: ADME, organism-based. Also noted: dose 2 mg/kg, route intravenous. Particulars: in vivo.
Series [13] in a line: Volume of distribution at steady state in Sprague-Dawley rat at 2 mg/kg, iv. The format is ADME, organism-based. Details: dose 2 mg/kg, route intravenous. The settings on record: in vivo, read-out: Vdss.
Series [14] concerns Rattus norvegicus. Put plainly: Oral bioavailability in Sprague-Dawley rat at 10 mg/kg. The format is ADME, organism-based. Particulars: in vivo.
Series [15] can be described thus: Drug level in Sprague-Dawley rat blood at 2 mg/kg, iv after 0.5 hrs. Format: ADME, organism-based. Details: dose 2 mg/kg, route intravenous. The settings on record: read-out: Drug uptake.
Series [16] can be described thus: Drug level in Sprague-Dawley rat blood at 2 mg/kg, iv after 1 hr. Format: ADME, organism-based. Also noted: dose 2 mg/kg, route intravenous. The settings on record: read-out: Drug uptake.
The nature of series [17]: Drug level in Sprague-Dawley rat blood at 2 mg/kg, iv after 2 hrs. The format is ADME, organism-based. Also noted: dose 2 mg/kg, route intravenous. Particulars: read-out: Drug uptake.
The nature of series [18]: Drug level in Sprague-Dawley rat blood at 2 mg/kg, iv after 4 hrs. The settings on record: read-out: Drug uptake. Format: ADME, organism-based. Also noted: dose 2 mg/kg, route intravenous.
Series [19] in a line: Drug level in Sprague-Dawley rat blood at 2 mg/kg, iv after 8 hrs. Format: ADME, organism-based. Also noted: dose 2 mg/kg, route intravenous. The settings on record: read-out: Drug uptake.
Series [20] is described as follows: Drug level in Sprague-Dawley rat blood at 2 mg/kg, iv after 24 hrs. Format: ADME, organism-based. Details: dose 2 mg/kg, route intravenous. The settings on record: read-out: Drug uptake.
Series [21] in a line: Drug level in Sprague-Dawley rat blood at 10 mg/kg, ig after 0.083 hrs. Format: ADME, organism-based. The settings on record: po, read-out: Drug uptake. Details: dose 10 mg/kg, route intragastric.
Series [22] is described as follows: Drug level in Sprague-Dawley rat blood at 10 mg/kg, ig after 0.25 hrs. The settings on record: po, read-out: Drug uptake. The format is ADME, organism-based. Details: dose 10 mg/kg, route intragastric.
A short description of series [23]: Drug level in Sprague-Dawley rat blood at 10 mg/kg, ig after 0.5 hrs. The format is ADME, organism-based. Details: dose 10 mg/kg, route intragastric. The settings on record: po, read-out: Drug uptake.
Series [24] can be described thus: Drug level in Sprague-Dawley rat blood at 10 mg/kg, ig after 1 hr. The settings on record: po, read-out: Drug uptake. Also noted: dose 10 mg/kg, route intragastric. Format: ADME, organism-based.
Series [25] can be described thus: Drug level in Sprague-Dawley rat blood at 10 mg/kg, ig after 2 hrs. The format is ADME, organism-based. Also noted: dose 10 mg/kg, route intragastric. The settings on record: po, read-out: Drug uptake.
Series [26] in a line: Drug level in Sprague-Dawley rat blood at 10 mg/kg, ig after 4 hrs. The settings on record: po, read-out: Drug uptake. The format is ADME, organism-based. Also noted: dose 10 mg/kg, route intragastric.
Series [27] in a line: Drug level in Sprague-Dawley rat blood at 10 mg/kg, ig after 8 hrs. Format: ADME, organism-based. Particulars: po, read-out: Drug uptake. Also noted: dose 10 mg/kg, route intragastric.
Series [28] in a line: Drug level in Sprague-Dawley rat blood at 10 mg/kg, ig after 24 hrs. Format: ADME, organism-based. Details: dose 10 mg/kg, route intragastric. Particulars: po, read-out: Drug uptake.
Series [29] can be described thus: Drug level in Sprague-Dawley rat blood at 2 mg/kg, iv after 0.25 hrs. Format: ADME, organism-based. Details: dose 2 mg/kg, route intravenous. The settings on record: read-out: Drug uptake.
Series [30] can be described thus: Drug level in Sprague-Dawley rat blood at 2 mg/kg, iv after 0.083 hrs. Format: ADME, organism-based. The settings on record: read-out: Drug uptake. Details: dose 2 mg/kg, route intravenous.

On to `CCOCC(=O)OC(C)(C)[C@H](OC(C)=O)[C@H](C[C@@H](C)C1=C2C[C@H](OC(C)=O)[C@H]3[C@@]4(C)CCC(=O)C(C)(C)[C@@H]4CC[C@]3(C)[C@@]2(C)CC1)OC(C)=O`, for which the CC50 in series [1] is > 2800 µM. The results for the IC50 in the series on Hepatitis B virus [2] and in the series on Hepatitis B virus [4] were 14 µM and 18 µM, respectively. Moreover, the entries for the “Ratio CC50/IC50” value in series [3] and in [5] were >200 and >156, respectively.
For `CCC(=O)O[C@@H](C[C@@H](C)C1=C2C[C@H](OC(=O)CC)[C@H]3[C@@]4(C)CCC(=O)C(C)(C)[C@@H]4CC[C@]3(C)[C@@]2(C)CC1)[C@@H](OC(=O)CC)C(C)(C)OC(C)=O` the same measures were > 1700 µM, 460 µM, 86 µM, >3.7 and >20.
For `C[C@H](C[C@H](O[Si](C)(C)C)[C@@H](O[Si](C)(C)C)C(C)(C)O[Si](C)(C)C)C1=C2C[C@H](O[Si](C)(C)C)[C@H]3[C@@]4(C)CCC(=O)C(C)(C)[C@@H]4CC[C@]3(C)[C@@]2(C)CC1` the same measures were 51 µM, 20 µM, > 51 µM, 2.5 and <1.
The matching figures for `CC(=O)O[C@@H](C[C@@H](C)[C@]12CC[C@@]3(C)[C@@]1(C[C@H](OC(C)=O)[C@H]1[C@@]4(C)CCC(=O)C(C)(C)[C@@H]4CC[C@@]13C)O2)[C@@H](OC(C)=O)C(C)(C)OC(C)=O`: > 4000 µM, 46 µM, 61 µM, >87 and >66.
On to `CC(=O)O[C@@H](C[C@@H](C)C1=C2C[C@H](OC(C)=O)[C@H]3[C@@]4(C)CCC(=O)C(C)(C)[C@@H]4CC[C@]3(C)[C@@]2(C)CC1)[C@@H](OC(C)=O)C(C)(C)OC(C)=O`, for which, in series [1], the 50% cytotoxic concentration (CC50) was > 1600 µM. The IC50 was determined as 4.8 µM in the series on Hepatitis B virus [2] and 11 µM in the series with Hepatitis B virus [4]. Also, the “Ratio CC50/IC50” value in [3] is reported as >333; in series [5], >145. The C0 in [6] turned out to be 567 ng/mL. In series [7], this compound yielded a Cmax of 383 ng/mL. Besides, the Tmax in series [8] is 1 h. This compound showed a half-life in [9] of 1.63 h. Also, the AUC in the series with Rattus norvegicus [10] worked out at 1040 ng·h/mL; in the series with Rattus norvegicus [11] it was 510 ng·h/mL. This compound came in with a CL in the series on Rattus norvegicus [12] of 64.5 mL/min/kg. The Vd in series [13] is 5.73 L/kg. This compound had a F in the series with Rattus norvegicus [14] of 40.9%. Also, the concentration at 0.5 h in [15] stood at 246 ng/mL; in series [23], 170 ng/mL. The concentration at 1 h turned out to be 156 ng/mL in [16] and 383 ng/mL in [24]. For the same compound, the concentration at 2 h in series [17] came out at 71.8 ng/mL; in [25] it was 290 ng/mL. In addition, the figures for the concentration at 4 h in series [18] and in series [26] were 14.5 ng/mL and 55.9 ng/mL, respectively. For the same compound, the concentration at 8 h came out at 5.02 ng/mL in series [19] and 6.28 ng/mL in series [27]. Moreover, the concentration at 24 h in [20] is 2.19 ng/mL; in [28] it was 2.03 ng/mL. For the same compound, the concentration at 0.083 h in series [21] was found to be 8.6 ng/mL; in series [30], 567 ng/mL. Also, the concentration at 0.25 h in [22] was determined as 70 ng/mL; in series [29], 363 ng/mL.
